Measured values published in publication PMC9449155 (Brazilian Journal of Otorhinolaryngology, 2017).

Key:
[1] = laboratory experiments and clinical studies; cited from earlier work
Description: (§1) Fishman et al. reported that in a large review of patients with culture-positive, persistent tympanostomy tube otorrhea, S. aureus accounted for 52% of the organisms cultured, of which 57% were MRSA.[20] Presently, the most commonly used antibiotic against MRSA is vancomycin. […] Although there is no emergence of VRSA in CSOM, new anti-MRSA peptides need to be studied for the prevention of VRSA or VISA. Mandal et al. reported that approximately 15% of MRSA ...

[2] = test system: MRSA; assay: Inhibition zone assay; format: cell-based, Methicillin-resistant Staphylococcus aureus; settings: 37 °C overnight
Protocol: MRSA was grown overnight for 18 h at 37 °C in 10 mL of LB broth and then 10 μL of this culture was inoculated into 10 mL of fresh LB and incubated for an additional 3 h at 37 °C to obtain mid-logarithmic phase organisms. The bacterial suspension (2 × 10^5 CFU/mL in LB) was mixed with 0.7% agarose and poured into a 10 cm Petri dish. […] The diameters of the bacterial clearance zones surrounding the circle paper were measured for the quantitation of inhibitory activities.

[3] = test system: guinea pigs; settings: guinea pig, in vivo; cited from earlier work
Description: as §1

[4] = paper disc on agarose plate, MRSA, zone size dose-dependent (Fig. 2)

## CN[C@H](CC(C)C)C(=O)N[C@H]1C(=O)N[C@@H](CC(N)=O)C(=O)N[C@H]2C(=O)N[C@H]3C(=O)N[C@H](C(=O)N[C@H](C(=O)O)c4cc(O)cc(O)c4-c4cc3ccc4O)[C@H](O)c3ccc(c(Cl)c3)Oc3cc2cc(c3O[C@@H]2O[C@H](CO)[C@@H](O)[C@H](O)[C@H]2O[C@H]2C[C@](C)(N)[C@H](O)[C@H](C)O2)Oc2ccc(cc2Cl)[C@H]1O [vancomycin]
[1]
  ototoxicity after vancomycin treatment: did not demonstrate significant ototoxicity

## KRIVQRIKKWLR-NH2 [KR-12-a2]
[2]; 10 μL aliquots of serial dilution on ≈6 mm paper discs, MRSA 2 × 10^5 CFU/mL in LB with 0.7% agarose
  amount from which an inhibition zone against MRSA was produced: 6.25 µg
[2]; [4]
  amount giving the highest mean diameter of the inhibition zone: 100 µg
  amount giving the lowest mean diameter of the inhibition zone: 6.25 µg

## daptomycin
[3]
  ototoxicity after topical application: no ototoxicity
